Values after ≈ are worked out from the molar mass of the structure shown.
Legend:
Chaetomium globosum = test: Minimum inhibitory concentration, Chaetomium globosum (Chg); format: cell-based
Experimental: (§1) Inocula of the fungi Aspergillus niger, Cladosporium resinae and Chaetomium globosum were prepared containing 5×10^5 conidia/ml in a potato dextrose broth. The potato dextrose broth was prepared by suspending 4 g potato extract and 20 g dextrose in 1 liter of distilled water, warming to achieve solution, separating into aliquots and sterilising by autoclaving at 121° C. for 15 minutes.
(§2) Test procedures were as follows:
(§3) (ii) Dilution Series for Other Test Bacteria, Yeast and Filamentous Fungi
(§4) Dilution series from the stock solution of each compound were prepared in sterile distilled water. These contained 50, 100, 500 and 1000 ppm compound. To duplicate wells of a compartmentalised square petri dish 0.3 ml of each test compound concentration was added together with 2.7 ml of one of the microbial inocula described above. This gave final concentrations of the test compound of 5, 10, 50 and 100 ppm.
(§5) After incubation, in the dark, at 30° C. the wells were examined for the presence or absence of growth. Bacterial and yeast cultures were examined after 24 hours and 72 hours incubation and the fungi cultures after 3, 7 and 10 days.
(§6) By means of the above tests minimum inhibitory concentrations were determined for the various test compounds.

Staphylococcus aureus = test: Minimum inhibitory concentration, Staphylococcus aureus (Sa); format: cell-based, Staphylococcus aureus (NCIB 6571); conditions: 30° C., 24 and 72 hours
Experimental: (§7) In respect of S. aureus, B. subtilis and E. coli, the microorganisms were cultured in 50 ml aliquots of a tryptone soya broth in 250 ml conical flasks at 30° C. on a rotary shaker at 200 rpm for 24 hours. Tryptone soya broth was prepared by adding 17 g pancreatic digest of casein, 3 g […] digest of soyabean meal, 5 g of sodium chloride, 2.5 g of dipotassium hydrogen phosphate and 2.5 g of dextrose to 1 liter of distilled water, mixing and sterilising by autoclaving at 121° C. for 15 minutes. 1 ml aliquots of the resulting cultures were mixed with 99 ml of fresh tryptone soya broth and used as inocula for tests. […] Test procedures were as follows: (ii) Dilution Series for Other Test Bacteria, Yeast and Filamentous Fungi Dilution series from the stock solution of each compound were prepared in sterile distilled water. These contained 50, 100, 500 and 1000 ppm compound. To duplicate wells of a compartmentalised square petri dish 0.3 ml of each test compound concentration was added together with 2.7 ml of one of the microbial inocula described above. […] After incubation, in the dark, at 30° C. the wells were examined for the presence or absence of growth. Bacterial and yeast cultures were examined after 24 hours and 72 hours incubation and the fungi cultures after 3, 7 and 10 days. By means of the above tests minimum inhibitory concentrations were determined for the various test compounds.

Saccharomyces cerevisiae = test: Minimum inhibitory concentration, yeast (Sc); format: cell-based, Saccharomyces cerevisiae (ATCC 9763); conditions: 30° C., 24 and 72 hours
Experimental: Inocula of S. cerevisiae were prepared as for S. aureus, B. subtilis and E. coli, but using yeast malt broth in place of the typtone soya broth. The yeast malt broth was prepared by suspending 3 g yeast extract, 3 g malt extract, 5 g peptone and 10 g dextrose in 1 liter of distilled water, warming to achieve solution and sterilising by autoclaving at 121° C. for 15 minutes.
as §2, §3, §4, §5, §6

Aspergillus niger = test: Minimum inhibitory concentration, Aspergillus niger (An); format: cell-based, Aspergillus niger (CMI 17454); conditions: 30° C., 3, 7 and 10 days
Experimental: as §1, §2, §3, §4, §5, §6

Escherichia coli = test: Minimum inhibitory concentration, Escherichia coli (Ec); format: cell-based, Escherichia coli (NCIB 9517); conditions: 30° C., 24 and 72 hours
Experimental: as §7

Bacillus subtilis = test: Minimum inhibitory concentration, Bacillus subtilis (Bs); format: cell-based; conditions: 30° C., 24 and 72 hours
Experimental: as §7

Cladosporium resinae = test: Minimum inhibitory concentration, Cladosporium resinae (Cr); format: cell-based; conditions: Amorphotheca resinae, 30° C., 3, 7 and 10 days
Experimental: as §1, §2, §3, §4, §5, §6

[1] = tested on: Pseudocercosporella herpotrichoides; test: In vitro activity against wheat eyespot (Ph); format: cell-based; design: Ph: activity against wheat eyespot: scale not given here; conditions: in vitro, 100 ppm in agar, 11 days; activity grade 1 or 2, not defined
Experimental: (c) Activity Against Wheat Eyespot (Pseudocercosporella herpotrichoides; Ph)
The test is an in vitro one. Samples are prepared wherein 0.7 mls solution containing 2 mg active material dissolved in acetone is evenly dispersed in 20 ml molten half-strength potato dextrose agar (formed by dissolving 2 g potato extract, 10 g dextrose and 7.5 g agar in 1 liter of water and sterilising for 15 minutes and 121° C.) and the resulting 20 ml portions are allowed to set in 9 cm petri dishes. The concentration of active material in the resulting samples is 100 ppm. Upon setting, two plugs of 5 mm diameter taken from the advancing edge of a stock plate of a 3 to 4 week old culture of P.herpotrichoides on full strength potato dextrose agar, incubated at 20°-22° C. in darkness, are placed, equally spaced on the surface of each sample, mycelial side uppermost. The samples are incubated for 11 days at 20°-22° C. in darkness before assessment. Diametric growth is measured with the width of the plug subtracted and results compared with growth on a sample wherein 0.7 ml acetone containing no active material is dispersed in 20 ml half-strength potato agar.

Desulfovibrio sp. = test: Minimum inhibitory concentration, sulphate-reducing bacteria (Dsp); format: cell-based; conditions: 30° C., 2, 5 and 10 days
Experimental: The sulphate reducing bacteria Desulfovibrio sp. were cultured in a modified Postgate's Medium B for 48 hours at 30° C. and used directly as an inoculum. The modified Postgate's Medium B consisted of 0.5 g dipotassium hydrogen phosphate, 1 g ammonium chloride, 1 g sodium sulphate, 5 g sodium lactate, 1 g yeast extract, 0.1 ml thioglycolic acid, 0.1 ml ascorbic acid, 0.5 g ferrous sulphate heptahydrate, 750 ml aged seawater and 250 ml distilled water, pH adjusted to 7.8, divided into aliquots and sterilised by autoclaving at 121° C. for 15 minutes. […] Test procedures were as follows: (i) Suphate-reducing Bacteria Test Dilution Series Duplicate aliquots (9.9 ml) of dilution series from the stock solutions of each compound were prepared in a modified Postgate's Medium B described above. These contained 100 ppm compound. These were then inoculated with 0.1 ml of inoculum. After incubation at 30° C., the presence or absence of growth--as indicated by a blackening of the medium due to ferrous sulphide production--was recorded at 2, 5 and 10 days. […] By means of the above tests minimum inhibitory concentrations were determined for the various test compounds.

Leptosphaeria nodorum = test: Direct antisporulant activity against wheat leafspot (Ln); format: in vivo; design: scale not given here; conditions: foliar spray, 1 kg/ha; activity grade 1 or 2, not defined
Experimental: (e) Activity Against Wheat Leafspot (Leptosphaeria nodorum; Ln) The test is a direct antisporulant one, using a foliar spray. Leaves of wheat plants ([…]), at the single leaf stage, are inoculated by spraying with an aqueous suspension containing 8×10^5 spores/mi. The inoculated plants are kept for 24 hours in a high humidity compartment prior to treatment. […] After drying, the plants are kept for 5 days under normal glasshouse conditions, followed by assessment. Assessment is based on the percentage of leaf area covered by sporulation compared with that on leaves of control plants.

[2] = tested on: Erysiphe graminis f.sp. hordei; test: Direct antisporulant activity against barley powdery mildew (Eg); format: in vivo; design: scale not given here; conditions: foliar spray, 1 kg/ha; activity grade 1 or 2, not defined
Description: (f) Activity Against Barley Powdery Mildew (Erysiphe graminis f.sp. hordei; Eg) The test is a direct antisporulant one, using a foliar spray. Leaves of barley seedlings, cultivar Golden Promise, are inoculated by dusting with mildew conidia one day prior to treatment with the test compound. The inoculated plants are kept overnight at glasshouse ambient temperature and humidity prior to treatment. […] After drying, plants are returned to a compartment at ambient temperature and humidity for up to 7 days, followed by assessment. Assessment is based on the percentage of leaf area covered by sporulation compared with that on leaves of control plants.

Fusarium culmorum = test: Activity against seedling wheat blight, soil drench (Fs); format: in vivo; design: scale not given here; conditions: 10 kg/ha, 21 days, activity grade 1 or 2, not defined
Experimental: (d) Activity Against Seedling Wheat Blight (Fusarium culmorum; Fs)
The test is an anti-sporulant one using a soil drench. Surface sterilised wheat seeds (var Waggoner) are inoculated by soaking in an aqueous suspension containing 7×10^5 spores/ml (60 mg seed per 80 ml suspension) at 22° C. for 6 hours. The seeds are then sown in pots (5 per pot) in sand at a depth of 1 cm. 1 day after inoculation and planting the active material is applied at a rate of 10 kg/ha by pouring on a soil drench (concentration 0.36 g/l active material in 12% v/v acetone/water) evenly over the sand. The pots are then transferred to a glasshouse, kept at 25° C. and watered sparingly. 21 days after inoculation the resulting seedlings are removed from the pots and their roots are gently washed. Visual assessment is made based on lesion development on stem base and upper roots in comparison with control seedlings.

Plasmopara viticola = test: Direct protectant activity against vine downy mildew (Pvp); format: in vivo; design: Pvp: direct protectant activity against vine downy mildew: scale not given here; conditions: for Pvp: direct protectant activity against vine downy mildew: foliar spray, 1 kg/ha, activity grade 1 or 2, not defined
Description: (a) Direct Protectant Activity Against Vine Downy Mildew (Plasmopara viticola; Pvp)
The test is a direct protectant one, using a foliar spray. The lower surfaces of leaves of whole vine plants (cv Cabernet Sauvignon) are sprayed with a solution of active material in 1:1 v/v water/acetone containing 0.04% w "Triton X-155" (trade mark) (octylphenol polyoxyethylene surfactant), at a dosage of 1 kilogram of active material per hectare using a track sprayer which delivers 620 liters/ha, and after a subsequent 24 hours under normal glasshouse conditions the lower surfaces of the leaves are inoculated by spraying with an aqueous solution containing 10^4 zoosporangia/ml. The inoculated plants are kept for 24 hours in a high humidity compartment, 5 days under normal glasshouse conditions and then returned for a further 24 hours to high humidity. Assessment is based on the percentage of leaf area covered by sporulation compared with that on control leaves.

SMILES | MIC (Chaetomium globosum; 30° C., 3, 7 and 10 days) [µg/mL] | MIC (Staphylococcus aureus) [µg/mL] | MIC (Saccharomyces cerevisiae) [µg/mL] | MIC (Aspergillus niger) [µg/mL] | MIC (Escherichia coli) [µg/mL] | MIC (Bacillus subtilis) [µg/mL] | MIC (Cladosporium resinae) [µg/mL] | Ph: activity against wheat eyespot [1] | MIC (Desulfovibrio sp.) [µg/mL] | Ln: activity against wheat leafspot (Leptosphaeria nodorum) | Eg: activity against barley powdery mildew [2] | MIC (Chaetomium globosum; *only tested at 100 ppm) [µg/mL] | Fs: activity against seedling wheat blight (Fusarium culmorum) | Pvp: direct protectant activity against vine downy mildew (Plasmopara viticola) | activity against Pvp (Plasmopara viticola; secondary screening)
CC1CCc2cccc([N+]([O-])=NC#N)c2O1 (stereo not drawn) [Example 14] | < 5 | > 100 | 50 (≈ 230 µM) | 10 (≈ 46 µM) | > 100 | > 100 | 25 (≈ 115 µM) | 2 | 100 (≈ 460 µM) |  |  |  |  |  | 
C#CCOC(=O)N=Nc1ccc(C)c2c1OC(C)CC2 (stereo not drawn) [Example 39] |  |  |  |  |  |  |  |  |  | 1 | 1 |  |  |  | 
CC1(C)C=Cc2cccc([N+]([O-])=NC#N)c2O1 [Example 27] |  | > 100 | > 100 | 100 (≈ 436 µM) | > 100 | > 100 | 25 (≈ 109 µM) | 2 | 100 (≈ 436 µM) |  |  | < 100 | 2 |  | 
N#CN=[N+]([O-])c1cccc2c1OC(CCl)C2 (stereo not drawn) [Example 13] | 25 (≈ 105 µM) | 100 (≈ 421 µM) | 100 (≈ 421 µM) | 10 (≈ 42.1 µM) | 100 (≈ 421 µM) | 100 (≈ 421 µM) | 100 (≈ 421 µM) |  | > 100 |  |  |  |  |  | 
CCOC(=O)N=Nc1cc(C)c(Cl)c2c1OC(C)CC2 (stereo not drawn) [Example 42] |  |  |  |  |  |  |  |  |  |  | 2 |  |  |  | 
CC1(C)CCc2cc(Cl)cc([N+]([O-])=NC#N)c2O1 [Example 15] | > 100 | > 100 | 50 (≈ 188 µM) | 10 (≈ 37.6 µM) | > 100 | 100 (≈ 376 µM) | > 100 | 2 | > 100 |  |  |  | 2 |  | 
Cc1ccc(N=NC#N)c2c1CC(C)(C)O2 [Example 38] |  |  |  |  |  |  |  |  |  |  |  |  |  | 2 | high activity
C#CCOC(=O)N=Nc1cc(C)c(Cl)c2c1OC(C)CC2 (stereo not drawn) [Example 41] |  |  |  |  |  |  |  |  |  |  | 1 |  |  | 1 | 
COC(=O)N=[N+]([O-])c1cc(C)cc2c1OC(C)(C)C2 [Example 44] |  |  |  |  |  |  |  |  |  |  | 2 |  |  | 1 | 
N#CN=[N+]([O-])c1cccc2c1OC(CO)C2 (stereo not drawn) [Example 12] | 100 (≈ 456 µM) | > 100 | > 100 | > 100 | 100 (≈ 456 µM) | 50 (≈ 228 µM) | 100 (≈ 456 µM) |  | 50 (≈ 228 µM) |  |  |  |  |  | 
N#CN=[N+]([O-])c1ccc2c(c1)C=CCO2 [Example 28] | 25 (≈ 124 µM) | > 100 | 25 (≈ 124 µM) | 10 to 25 (≈ 49.7 to 124 µM) | > 100 | 50 to 100 (≈ 249 to 497 µM) | 25 to 50 (≈ 124 to 249 µM) |  | 100 (≈ 497 µM) |  |  |  |  |  | 
COC(=O)N=Nc1cc(C)cc2c1OC(C)(C)C2 [Example 32] |  |  |  |  |  |  |  |  |  |  |  |  |  | 1 | 

From patent US5376679A, “Bicyclic or tricyclic biocidal compounds” (Shell Internationale Research Maatschappij B.V., priority 1988, dated 1994)
